Experimental data: patent US20220056018A1, “SREBP INHIBITORS COMPRISING A THIOPHENE CENTRAL RING” (Capulus Therapeutics, LLC, priority 2019, published 2022)
pIC50: −log10 of the molar value.

Key:
Assay in all cases: Cancer cell growth inhibition
Assay type in all cases: cell-based
SKOV3 = details: Homo sapiens, SK-OV-3; SKOV3 (ovary), 72 hr treatment
Procedure: (§1) The ability of select compounds to inhibit cell growth in various cancer cell lines are evaluated. […] The cell lines shown in Table 2 have reduced growth by at least 50% at 10 uM or lower over 72 hr treatment in growth media. The cell lines shown in Table 3 have reduced growth by at least 50% with an IC50 greater than 10 uM.
(§2) Six 10-fold compound dilutions are prepared in DMSO (e.g. 10 mM, 1 mM, 100 uM, 10 uM, 1 uM, and 0.1 uM). Single data points are acquired for each concentration. The final concentration of DMSO is 0.1%. The duration of the treatment is 72 hr. Growth inhibition is measured using Sulforhodamine B in a protein staining assay. Activity of the agents is determined by evaluation the following parameters: IC50, GI50, IC10, TGI, LC50, IC90, and GI90 (where these values can be calculated).

EJ28 = details: Homo sapiens, EJ-28; EJ28 (bladder), 72 hr treatment
Procedure: as §1, §2

MCF7 = details: Homo sapiens; MCF7 (breast), 72 hr treatment
Procedure: as §1, §2

K-562 = details: Homo sapiens, K562; K-562 (hematological), 72 hr treatment
Procedure: as §1, §2

HEPG2 = details: Homo sapiens; HEPG2 (liver), 72 hr treatment
Procedure: as §1, §2

SNB75 = details: Homo sapiens, SNB-75; SNB75 (brain), 72 hr treatment
Procedure: as §1, §2

HELA = details: Homo sapiens; HELA (endometrial), 72 hr treatment
Procedure: as §1, §2

U2OS = details: Homo sapiens; U2OS (bone), 72 hr treatment
Procedure: as §1, §2

A204 = details: Homo sapiens; A204 (muscle), 72 hr treatment
Procedure: as §1, §2

A2780 = details: Homo sapiens; A2780 (ovary), 72 hr treatment
Procedure: as §1, §2

HCT116 = details: Homo sapiens, HCT-116; HCT116 (colon), 72 hr treatment
Procedure: as §1, §2

SW620 = details: Homo sapiens, SW-620; SW620 (colon), 72 hr treatment
Procedure: as §1, §2

PLCPRF5 = details: Homo sapiens, PLC-PRF-5; PLCPRF5 (liver), 72 hr treatment
Procedure: as §1, §2

SF268 = details: Homo sapiens, SF-268; SF268 (brain), 72 hr treatment
Procedure: as §1, §2

MDAMB436 = details: Homo sapiens, MDA-MB-436; MDAMB436 (breast), 72 hr treatment
Procedure: as §1, §2

THP-1 = details: Homo sapiens; THP-1 (hematological), 72 hr treatment
Procedure: as §1, §2

BXPC3 = details: Homo sapiens, BXPC-3; BXPC3 (pancreas), 72 hr treatment
Procedure: as §1, §2

OVCAR4 = details: Homo sapiens, OVCAR-4; OVCAR4 (ovary), 72 hr treatment
Procedure: as §1, §2

OVCAR3 = details: Homo sapiens, OVCAR-3; OVCAR3 (ovary), 72 hr treatment
Procedure: as §1, §2

KASUMI-1 = details: Homo sapiens; KASUMI-1 (hematological), 72 hr treatment
Procedure: as §1, §2

EFO21 = details: Homo sapiens, EFO-21; EFO21 (ovary), 72 hr treatment
Procedure: as §1, §2

SKMEL28 = details: Homo sapiens, SK-MEL-28; SKMEL28 (skin), 72 hr treatment
Procedure: as §1, §2

A375 = details: Homo sapiens, A-375; A375 (skin), 72 hr treatment
Procedure: as §1, §2

RAMOS = details: Homo sapiens; RAMOS (hematological), 72 hr treatment
Procedure: as §1, §2

MDAMB468 = details: Homo sapiens, MDA-MB-468; MDAMB468 (breast), 72 hr treatment
Procedure: as §1, §2

ASPC1 = details: Homo sapiens; ASPC1 (pancreas), 72 hr treatment
Procedure: as §1, §2

COLO678 = details: Homo sapiens, COLO-678; COLO678 (colon), 72 hr treatment
Procedure: as §1, §2

T24 = details: Homo sapiens, T-24; T24 (bladder), 72 hr treatment
Procedure: as §1, §2

UO31 = details: Homo sapiens, UO-31; UO31 (kidney), 72 hr treatment
Procedure: as §1, §2

MV4-11 = details: Homo sapiens; MV4-11 (hematological), 72 hr treatment
Procedure: as §1, §2

IMR90 = details: Homo sapiens, IMR-90; IMR90 (lung), 72 hr treatment
Procedure: as §1, §2

MT3 = details: MT-3; MT3 (breast), 72 hr treatment
Procedure: as §1, §2

Structure (SMILES) | pIC50 (SKOV3) | pIC50 (EJ28) | pIC50 (MCF7) | pIC50 (K-562) | pIC50 (HEPG2) | pIC50 (SNB75) | pIC50 (HELA) | pIC50 (U2OS) | pIC50 (A204) | pIC50 (A2780) | pIC50 (HCT116) | pIC50 (SW620) | pIC50 (PLCPRF5) | pIC50 (SF268) | pIC50 (MDAMB436) | pIC50 (THP-1) | pIC50 (BXPC3) | pIC50 (OVCAR4) | pIC50 (OVCAR3) | pIC50 (KASUMI-1) | further results
CC(C)(CO)c1cc(-c2csc(-c3ccc(NS(C)(=O)=O)cc3Cl)c2)ccn1 [Compound I-8909, N-(3-chloro-4-(4-(2-(1-hydroxy-2-methylpropan-2-yl)pyridin-4-yl)thiophen-2-yl)phenyl)methanesulfonamide] | < 5.00 | < 5.00 | > 5.00 | > 5.00 | > 5.00 | < 5.00 | > 5.00 | < 5.00 | > 5.00 | > 5.00 | > 5.00 | < 5.00 | > 5.00 | > 5.00 | < 5.00 | > 5.00 | < 5.00 | > 5.00 | > 5.00 | < 5.00 | pIC50 (EFO21): > 5.00; pIC50 (SKMEL28): > 5.00; pIC50 (A375): < 5.00; pIC50 (RAMOS): > 5.00; pIC50 (MDAMB468): > 5.00; pIC50 (ASPC1): > 5.00; pIC50 (COLO678): > 5.00; pIC50 (T24): < 5.00; pIC50 (UO31): < 5.00; pIC50 (MV4-11): > 5.00; pIC50 (IMR90): < 5.00; pIC50 (MT3): > 5.00
CC(C)(O)Cc1cc(-c2csc(-c3ccc(NS(C)(=O)=O)cc3Cl)c2)ccn1 [Compound I-9004, N-(3-chloro-4-(4-(2-(2-hydroxy-2-methylpropyl)pyridin-4-yl)thiophen-2-yl)phenyl)methanesulfonamide] | < 5.00 | < 5.00 | > 5.00 | > 5.00 | > 5.00 | < 5.00 | > 5.00 | < 5.00 | < 5.00 | > 5.00 | > 5.00 | < 5.00 | > 5.00 | > 5.00 | > 5.00 | > 5.00 | < 5.00 | > 5.00 | > 5.00 | < 5.00 | pIC50 (EFO21): > 5.00; pIC50 (SKMEL28): > 5.00; pIC50 (A375): < 5.00; pIC50 (RAMOS): > 5.00; pIC50 (MDAMB468): > 5.00; pIC50 (ASPC1): > 5.00; pIC50 (COLO678): > 5.00; pIC50 (T24): < 5.00; pIC50 (UO31): < 5.00; pIC50 (MV4-11): > 5.00; pIC50 (IMR90): < 5.00; pIC50 (MT3): > 5.00
CS(=O)(=O)Nc1ccc(-c2cc(-c3ccnc4c3OCCO4)cs2)c(Cl)c1 [Compound I-9017, N-(3-chloro-4-(4-(2,3-dihydro-[1,4]dioxino[2,3-b]pyridin-8-yl)thiophen-2-yl)phenyl)methanesulfonamide] | > 5.00 | < 5.00 | > 5.00 | > 5.00 | > 5.00 | < 5.00 | > 5.00 | > 5.00 | > 5.00 | > 5.00 | > 5.00 | > 5.00 | > 5.00 | > 5.00 | > 5.00 | > 5.00 | > 5.00 | > 5.00 | > 5.00 | > 5.00 | pIC50 (EFO21): > 5.00; pIC50 (SKMEL28): > 5.00; pIC50 (A375): < 5.00; pIC50 (RAMOS): > 5.00; pIC50 (MDAMB468): > 5.00; pIC50 (ASPC1): > 5.00; pIC50 (COLO678): > 5.00; pIC50 (T24): > 5.00; pIC50 (UO31): > 5.00; pIC50 (MV4-11): > 5.00; pIC50 (IMR90): < 5.00; pIC50 (MT3): > 5.00
